Assay results published in US20140200215A1, “LYSOPHOSPHATIDIC ACID RECEPTOR ANTAGONISTS” (INTERMUNE, INC., priority 2013, published 2014).

Key:
Type in all cases: cell-based
[1] = biological target: T1, Human LPA1 (Homo sapiens, UniProt Q92633); test: Beta-Arrestin based assay for human LPA1R antagonists (PathHunter); settings: CHO cells expressing ProLink tagged human LPA1R; antagonist mode, 0.5 micromolar LPA
Description: Beta-Arrestin Based Assays for Human LPA1R Antagonists and Agonists
A CHO cell line stably expressing the ProLink™ tagged human LPA1R was obtained from DiscoverX Inc, Fremont, Calif. In this system, β-Arrestin was fused to an N-terminal deletion mutant of β-galactosidase (termed the enzyme acceptor or EA), the human LPA1R was fused to a smaller (42 amino acids) weakly complementing fragment termed ProLink™. […] Cell handling and assays were performed according to protocols specified in the PathHunter® assays kits (DiscoverX, Fremont, Calif.). Assays were performed in quadruplicate in white 384 well plates. End point luminescence data were plotted and fit to a 4 parameter logistic function to obtain IC50 values. For antagonist assays, an […] concentration of agonist (LPA) equal to 0.5 micromolar was used.

[2] = biological target: T1, Human LPA1; test: LPA1 calcium flux assay; parameters: the full-length cDNA for human LPA1 is obtained by PCR of the reverse transcription reaction; expressed in transfected cells; settings: human LPA1 expressing CHO cells, stimulated with 10 nM LPA; read-out: Ca Flux LPA1 IC50
Description: Establishment of a CHO Cell Line Stably Expressing Human LPA1
A 1.1 kb cDNA encoding the human LPA1 receptor is cloned from human lung. Human lung RNA (Clontech Laboratories, Inc. USA) is reverse transcribed using the RETROscript kit (Ambion, Inc.) and the full-length cDNA for human LPA1 is obtained by PCR of the reverse transcription reaction. The nucleotide sequence of the cloned human LPA1 is determined by sequencing and is confirmed to be identical to the published human LPA1 sequence (An et al. Biochem. Biophys. Res. Commun. 231:619 (1997). The cDNA is cloned into the pCDNA5 pcDNA5/FRT expression plasmid and is transfected in CHO cells using lipofectamine 2000 (Invitrogen Corp., USA). Clones stably expressing human LPA1 are selected using hygromycin and identified as cells that show Ca-influx in response to LPA.
LPA1 and LPA3 Calcium Flux Assays
Human LPA1 or LPA3 expressing CHO cells were seeded at 20,000-45,000 cells per well in a 96-well poly-D-lysine coated plate one or two days before the assay. Prior to the assay, the cells were washed once with PBS and then cultured in serum-free media overnight. On the day of the assay, a calcium indicator dye (Calcium 4, Molecular Devices) in assay buffer (HBSS with Ca^2+ and Mg^2+ and containing 20 mM Hepes and 0.3% fatty-acid free human serum albumin) was added to each well and incubation continued for 1 hour at 37° C. 10 μl of test compounds in 2.5% DMSO were added to the cells and incubation continued at room temperature for 30 minutes. Cells were then stimulated by the addition of 10 nM LPA and intracellular Ca^2+ measured using the Flexstation 3 (Molecular Devices). IC50, were determined using Graphpad prism analysis of drug titration curves.

[3] = tested on: primary fibroblasts (including lung, dermal), HFL-1, 3T3 and CHO cells expressing LPA1R; test: LPA1 migration assay (Oris cell migration); settings: inhibition of cell migration in response to chemoattractant (LPA, serum)
From the text: Migration of primary fibroblasts (including lung, dermal), HFL-1, 3T3 and CHO cells expressing LPA1R were monitored using the Oris™ assay (Platypus Technologies, Madison, Wis.). These cells were dye (Cell Tracker Green™) loaded and serum starved for 12-24 hrs. In response to chemoattractants such as LPA and serum, the cells migrated inward in to the exclusion (detection) zone. After fixing, fluorescent cells in the detection zone were counted using a high content reader. The ability of LPA1 antagonists to inhibit cell migration is quantified by plotting cell number vs. compound concentration and curve fitting the resulting dose-response curve to a 4 parameter logistic function.

T1 sequence (Q92633 whole entry): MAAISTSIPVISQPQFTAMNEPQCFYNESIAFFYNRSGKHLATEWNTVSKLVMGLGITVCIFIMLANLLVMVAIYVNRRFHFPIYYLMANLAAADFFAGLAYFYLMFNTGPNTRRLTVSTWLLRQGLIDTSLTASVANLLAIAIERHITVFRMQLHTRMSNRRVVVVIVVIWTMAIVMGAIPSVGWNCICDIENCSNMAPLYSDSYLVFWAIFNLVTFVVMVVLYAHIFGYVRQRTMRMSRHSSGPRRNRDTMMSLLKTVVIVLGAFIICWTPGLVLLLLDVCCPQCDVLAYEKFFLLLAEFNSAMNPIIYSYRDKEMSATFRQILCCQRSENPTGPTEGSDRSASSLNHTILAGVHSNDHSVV

Row | Structure (SMILES) | EC50 [1] [µM] | IC50 [2] [µM] | EC50 [3] [µM]
1 | C[C@@H](OC(=O)Nc1c(-c2ccc(-c3cc4sc(C5(C(=O)O)CC5)cc4s3)cc2)cnn1C)c1ccccc1 [IT056] | < 0.05 | 0.05 to 0.5 | 0.05 to 0.5
2 | C[C@@H](OC(=O)Nc1c(C#Cc2cc3sc(C4(C(=O)O)CC4)cc3s2)nn2ccccc12)c1ccccc1 [IT073] | 0.05 to 0.5 | < 0.05 | 0.05 to 0.5
3 | C[C@@H](OC(=O)Nc1c(-c2ccc(-c3ccc(C4(C(=O)O)CC4)cc3)cc2)nn2ncccc12)c1ccccc1 [IT033] | < 0.05 | 0.05 to 0.5 | < 0.05
4 | C[C@@H](OC(=O)Nc1c(-c2ccc(-c3cc4sc(C5(C(=O)O)CC5)cc4s3)cc2)nnn1C)c1ccccc1 [IT050] | < 0.05 | 0.05 to 0.5 | 0.05 to 0.5
5 | CCOC(=O)N1CCn2c(nc(-c3ccc(-c4ccc(C5(C(=O)O)CC5)cc4)cc3)c2NC(=O)O[C@H](C)c2ccccc2)C1 [IT023] | > 0.5 | > 0.5 | > 0.5
6 | CNC(=O)N1CCn2c(nc(-c3ccc(-c4ccc(C5(C(=O)O)CC5)cc4)cc3)c2NC(=O)O[C@H](C)c2ccccc2)C1 [IT022] | > 0.5 | > 0.5 | > 0.5
7 | C[C@@H](OC(=O)Nc1c(C2CCC(c3ccc(C4(C(=O)O)CC4)cc3)CC2)cnn1C)c1ccccc1 (stereo partly drawn) [IT066] | 0.05 to 0.5 | 0.05 to 0.5 | > 0.5
8 | Cc1nsc(-c2ccc(-c3cc4sc(C5(C(=O)O)CC5)cc4s3)cc2)c1NC(=O)O[C@H](C)c1ccccc1 [IT046] | < 0.05 | > 0.5 | 0.05 to 0.5
